In US10351575B2, “Bicyclic urea, thiourea, guanidine and cyanoguanidine compounds useful for the treatment of pain” (Array BioPharma Inc., priority 2012, dated 2019):

Legend:
Test in all cases: KinaseProfiler off-target kinase profiling
Type in all cases: biochemical
Settings in all cases: 10 μM, ATP near Km
TSSK2 = TSSK2 (Homo sapiens (Human), UniProt Q96PF2)
Method in brief: (§1)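 ATP was held near each kinase's Km while compound was present at 10 μM. Runs were done twice, and values are the average percent of control.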

EphB1 = EphB1 (Homo sapiens (Human), UniProt P54762)
Method in brief: as §1

SGK1 = SGK1 (Homo sapiens (Human), UniProt O00141)
Method in brief: as §1

Txk = Txk (Homo sapiens (Human), UniProt P42681)
Method in brief: as §1

FAK = FAK (Homo sapiens (Human), UniProt Q05397)
Method in brief: as §1

CK1_y = test system: CK1_y
Method in brief: as §1

IRAK1 = IRAK1 (Homo sapiens (Human), UniProt P51617)
Method in brief: as §1

PKCbetaII = PKCbetaII (Homo sapiens (Human), UniProt P05771)
Method in brief: as §1

MARK2 = MARK2 (Homo sapiens (Human), UniProt Q7KZI7)
Method in brief: as §1

EphA4 = EphA4 (Homo sapiens (Human), UniProt P54764)
Method in brief: as §1

MRCKbeta = MRCKbeta (Homo sapiens (Human), UniProt Q9Y5S2)
Method in brief: as §1

MKK7beta = MKK7beta (Homo sapiens (Human), UniProt O14733)
Method in brief: as §1

p38gamma = p38gamma (Homo sapiens (Human), UniProt P53778)
Method in brief: as §1

MST1 = MST1 (Homo sapiens (Human), UniProt Q13043)
Method in brief: as §1

JNK2alpha2 = JNK2alpha2 (Homo sapiens (Human), UniProt P45984)
Method in brief: as §1

TrkB = TrkB (Homo sapiens (Human), UniProt Q16620)
Method in brief: as §1

PKCeta = PKCeta (Homo sapiens (Human), UniProt P24723)
Method in brief: as §1

DYRK2 = DYRK2 (Homo sapiens (Human), UniProt Q92630)
Method in brief: as §1

GSK3beta = GSK3beta (Homo sapiens (Human), UniProt P49841)
Method in brief: as §1

Pim-2 = Pim-2 (Homo sapiens (Human), UniProt Q9P1W9)
Method in brief: as §1

FGFR1 = FGFR1 (Homo sapiens (Human), UniProt P11362)
Method in brief: as §1

CK1gamma3 = CK1gamma3 (Homo sapiens (Human), UniProt Q9Y6M4)
Method in brief: as §1

BrSK1 = BrSK1 (Homo sapiens (Human), UniProt Q8TDC3)
Method in brief: as §1

Rsk2 = Rsk2 (Homo sapiens (Human), UniProt P51812)
Method in brief: as §1

Hck = Hck (Homo sapiens (Human), UniProt P08631)
Method in brief: as §1

EGFR = EGFR (Homo sapiens (Human), UniProt P00533)
Method in brief: as §1

ULK2 = ULK2 (Homo sapiens (Human), UniProt Q8IYT8)
Method in brief: as §1

MSSK1 = MSSK1 (Homo sapiens (Human), UniProt Q9UPE1)
Method in brief: as §1

PKCalpha = PKCalpha (Homo sapiens (Human), UniProt P17252)
Method in brief: as §1

eEF-2K = eEF-2K (Homo sapiens (Human), UniProt O00418)
Method in brief: as §1

EphA7 = EphA7 (Homo sapiens (Human), UniProt Q15375)
Method in brief: as §1

CK1delta = CK1delta (Homo sapiens (Human), UniProt P48730)
Method in brief: as §1

Ret = Ret (Homo sapiens (Human), UniProt P07949)
Method in brief: as §1

NEK2 = NEK2 (Homo sapiens (Human), UniProt P51955)
Method in brief: as §1

Sequence of EphA7 (Q15375 28-998): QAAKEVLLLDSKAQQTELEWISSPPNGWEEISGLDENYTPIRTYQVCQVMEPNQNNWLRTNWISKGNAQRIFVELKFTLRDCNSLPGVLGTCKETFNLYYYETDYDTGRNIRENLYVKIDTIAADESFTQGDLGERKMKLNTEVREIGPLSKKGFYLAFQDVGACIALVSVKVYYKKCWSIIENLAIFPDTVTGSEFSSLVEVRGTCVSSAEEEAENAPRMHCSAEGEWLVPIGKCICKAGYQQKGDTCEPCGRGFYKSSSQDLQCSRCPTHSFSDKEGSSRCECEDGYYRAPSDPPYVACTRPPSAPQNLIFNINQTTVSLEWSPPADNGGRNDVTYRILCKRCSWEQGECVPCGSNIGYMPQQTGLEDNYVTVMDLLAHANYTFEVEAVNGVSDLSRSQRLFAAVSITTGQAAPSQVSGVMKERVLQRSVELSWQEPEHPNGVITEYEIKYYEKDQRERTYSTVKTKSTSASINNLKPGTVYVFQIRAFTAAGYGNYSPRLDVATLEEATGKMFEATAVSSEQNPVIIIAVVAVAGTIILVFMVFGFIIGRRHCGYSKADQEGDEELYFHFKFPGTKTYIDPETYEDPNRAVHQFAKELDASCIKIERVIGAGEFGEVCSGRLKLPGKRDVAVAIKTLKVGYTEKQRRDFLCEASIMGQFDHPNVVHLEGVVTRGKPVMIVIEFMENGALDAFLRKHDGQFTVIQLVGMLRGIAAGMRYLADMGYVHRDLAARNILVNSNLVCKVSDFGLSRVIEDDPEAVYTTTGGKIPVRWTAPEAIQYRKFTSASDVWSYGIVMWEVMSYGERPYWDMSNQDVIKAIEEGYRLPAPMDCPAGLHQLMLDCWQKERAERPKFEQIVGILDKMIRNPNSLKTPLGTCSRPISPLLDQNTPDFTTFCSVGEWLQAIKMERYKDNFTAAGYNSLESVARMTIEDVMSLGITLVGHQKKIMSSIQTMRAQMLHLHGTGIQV
Sequence of Ret (P07949 29-1114): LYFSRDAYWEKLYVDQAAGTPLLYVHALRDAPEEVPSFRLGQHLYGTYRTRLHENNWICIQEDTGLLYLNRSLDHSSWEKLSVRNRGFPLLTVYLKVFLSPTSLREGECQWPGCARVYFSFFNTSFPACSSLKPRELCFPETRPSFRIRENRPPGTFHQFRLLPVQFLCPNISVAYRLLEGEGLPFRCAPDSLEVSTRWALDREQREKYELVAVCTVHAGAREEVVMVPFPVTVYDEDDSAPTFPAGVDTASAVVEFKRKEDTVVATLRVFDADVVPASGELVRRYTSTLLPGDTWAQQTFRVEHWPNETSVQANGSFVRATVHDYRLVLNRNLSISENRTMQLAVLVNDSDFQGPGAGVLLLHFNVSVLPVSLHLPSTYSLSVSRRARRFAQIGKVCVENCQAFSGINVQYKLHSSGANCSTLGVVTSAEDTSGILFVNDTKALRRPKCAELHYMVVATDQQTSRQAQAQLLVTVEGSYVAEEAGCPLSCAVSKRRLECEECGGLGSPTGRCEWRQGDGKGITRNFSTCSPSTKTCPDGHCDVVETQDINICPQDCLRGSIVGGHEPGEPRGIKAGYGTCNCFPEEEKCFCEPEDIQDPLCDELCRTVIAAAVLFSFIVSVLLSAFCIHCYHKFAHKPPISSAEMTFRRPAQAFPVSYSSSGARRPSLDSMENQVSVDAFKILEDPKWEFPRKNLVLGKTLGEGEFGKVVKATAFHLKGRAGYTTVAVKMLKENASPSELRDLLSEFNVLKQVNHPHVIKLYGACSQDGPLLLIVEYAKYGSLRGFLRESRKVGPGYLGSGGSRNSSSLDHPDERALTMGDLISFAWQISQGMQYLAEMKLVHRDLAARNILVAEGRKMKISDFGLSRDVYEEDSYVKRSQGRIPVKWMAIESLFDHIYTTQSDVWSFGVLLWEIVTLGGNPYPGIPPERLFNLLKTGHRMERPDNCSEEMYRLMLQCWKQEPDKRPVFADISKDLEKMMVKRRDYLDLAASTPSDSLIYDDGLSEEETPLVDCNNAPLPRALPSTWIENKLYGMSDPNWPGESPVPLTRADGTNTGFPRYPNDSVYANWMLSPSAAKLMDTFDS
Sequence of FGFR1 (P11362 22-822): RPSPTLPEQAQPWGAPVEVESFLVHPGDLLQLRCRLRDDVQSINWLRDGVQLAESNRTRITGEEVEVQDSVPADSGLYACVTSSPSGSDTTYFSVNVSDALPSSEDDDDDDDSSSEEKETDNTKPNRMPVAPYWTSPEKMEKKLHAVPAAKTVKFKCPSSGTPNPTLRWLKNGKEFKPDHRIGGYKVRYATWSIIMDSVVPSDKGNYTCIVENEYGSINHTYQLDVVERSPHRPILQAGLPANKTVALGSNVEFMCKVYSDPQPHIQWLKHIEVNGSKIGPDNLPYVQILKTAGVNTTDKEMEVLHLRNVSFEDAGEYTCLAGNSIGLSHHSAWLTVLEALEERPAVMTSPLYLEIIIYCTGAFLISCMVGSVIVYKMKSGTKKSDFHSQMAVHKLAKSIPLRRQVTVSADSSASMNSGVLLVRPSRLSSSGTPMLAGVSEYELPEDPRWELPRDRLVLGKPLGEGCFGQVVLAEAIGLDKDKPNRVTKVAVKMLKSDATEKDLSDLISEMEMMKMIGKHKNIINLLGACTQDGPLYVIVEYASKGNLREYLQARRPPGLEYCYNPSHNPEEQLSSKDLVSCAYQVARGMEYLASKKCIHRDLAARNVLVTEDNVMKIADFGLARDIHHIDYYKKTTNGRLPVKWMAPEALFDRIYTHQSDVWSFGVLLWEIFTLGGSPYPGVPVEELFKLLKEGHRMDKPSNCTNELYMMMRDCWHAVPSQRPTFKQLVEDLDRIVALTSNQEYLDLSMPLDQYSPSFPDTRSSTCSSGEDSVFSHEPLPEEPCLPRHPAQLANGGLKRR
Sequence of TrkB (Q16620 32-822): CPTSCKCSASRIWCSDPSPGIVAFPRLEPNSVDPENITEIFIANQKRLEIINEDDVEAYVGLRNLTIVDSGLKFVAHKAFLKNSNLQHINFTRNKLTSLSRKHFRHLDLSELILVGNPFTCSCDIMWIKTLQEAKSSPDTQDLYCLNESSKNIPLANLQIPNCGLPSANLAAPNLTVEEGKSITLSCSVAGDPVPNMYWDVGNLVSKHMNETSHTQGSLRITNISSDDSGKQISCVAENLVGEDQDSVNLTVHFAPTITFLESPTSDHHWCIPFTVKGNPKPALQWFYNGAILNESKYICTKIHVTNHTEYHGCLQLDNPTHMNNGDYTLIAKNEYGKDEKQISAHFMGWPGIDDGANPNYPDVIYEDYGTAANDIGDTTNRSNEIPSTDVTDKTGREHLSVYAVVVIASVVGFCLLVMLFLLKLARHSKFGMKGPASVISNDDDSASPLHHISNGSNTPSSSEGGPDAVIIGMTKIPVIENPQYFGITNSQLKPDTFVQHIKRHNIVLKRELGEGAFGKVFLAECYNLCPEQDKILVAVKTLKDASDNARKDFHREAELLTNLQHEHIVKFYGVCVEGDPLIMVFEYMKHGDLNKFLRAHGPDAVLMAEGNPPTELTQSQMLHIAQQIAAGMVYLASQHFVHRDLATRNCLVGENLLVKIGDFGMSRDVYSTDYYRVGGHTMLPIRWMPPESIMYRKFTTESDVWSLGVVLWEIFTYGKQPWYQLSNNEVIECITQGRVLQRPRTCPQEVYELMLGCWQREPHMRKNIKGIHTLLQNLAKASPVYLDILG
Sequence of SGK1 (O00141 whole entry): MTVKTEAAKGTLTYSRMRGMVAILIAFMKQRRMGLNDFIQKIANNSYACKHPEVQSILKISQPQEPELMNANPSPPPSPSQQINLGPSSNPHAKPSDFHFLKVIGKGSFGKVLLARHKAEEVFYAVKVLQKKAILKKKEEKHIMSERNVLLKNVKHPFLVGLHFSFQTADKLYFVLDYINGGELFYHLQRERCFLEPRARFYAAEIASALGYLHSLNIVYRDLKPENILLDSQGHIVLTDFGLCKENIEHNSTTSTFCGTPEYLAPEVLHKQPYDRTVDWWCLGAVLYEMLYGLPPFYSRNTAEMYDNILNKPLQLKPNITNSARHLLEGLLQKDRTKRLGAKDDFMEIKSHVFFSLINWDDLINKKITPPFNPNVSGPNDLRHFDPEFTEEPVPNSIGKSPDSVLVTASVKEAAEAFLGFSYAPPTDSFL
Sequence of Hck (P08631 whole entry): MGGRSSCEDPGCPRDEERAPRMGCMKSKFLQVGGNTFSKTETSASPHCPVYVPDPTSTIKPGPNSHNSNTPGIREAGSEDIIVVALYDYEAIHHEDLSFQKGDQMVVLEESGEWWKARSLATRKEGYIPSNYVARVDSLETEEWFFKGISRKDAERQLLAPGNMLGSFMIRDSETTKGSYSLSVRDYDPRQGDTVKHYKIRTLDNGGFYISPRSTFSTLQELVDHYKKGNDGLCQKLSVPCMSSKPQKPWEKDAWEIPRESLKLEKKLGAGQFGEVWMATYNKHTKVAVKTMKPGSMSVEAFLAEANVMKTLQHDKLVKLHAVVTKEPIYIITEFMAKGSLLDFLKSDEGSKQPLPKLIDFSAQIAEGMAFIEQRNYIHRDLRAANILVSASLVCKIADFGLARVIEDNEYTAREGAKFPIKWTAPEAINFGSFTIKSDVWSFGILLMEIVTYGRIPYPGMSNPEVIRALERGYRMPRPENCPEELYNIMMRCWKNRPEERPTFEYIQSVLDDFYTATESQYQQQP
Sequence of MKK7beta (O14733 whole entry, change not shown): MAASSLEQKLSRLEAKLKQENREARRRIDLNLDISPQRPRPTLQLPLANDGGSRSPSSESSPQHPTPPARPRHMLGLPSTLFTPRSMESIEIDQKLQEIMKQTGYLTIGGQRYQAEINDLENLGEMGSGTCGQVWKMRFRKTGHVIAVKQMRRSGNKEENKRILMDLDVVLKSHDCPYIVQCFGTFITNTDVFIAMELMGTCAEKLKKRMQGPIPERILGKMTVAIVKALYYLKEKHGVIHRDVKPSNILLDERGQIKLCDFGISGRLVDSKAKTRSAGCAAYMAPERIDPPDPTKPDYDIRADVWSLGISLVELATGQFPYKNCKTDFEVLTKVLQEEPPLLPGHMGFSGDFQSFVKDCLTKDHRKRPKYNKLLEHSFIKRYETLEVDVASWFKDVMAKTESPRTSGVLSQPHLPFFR

Row | SMILES | Avg. POC (TSSK2) [POC] | Avg. POC (EphB1) [POC] | Avg. POC (SGK1) [POC] | Avg. POC (Txk) [POC] | Avg. POC (FAK) [POC] | Avg. POC (IRAK1) [POC] | Avg. POC (PKCbetaII) [POC] | Avg. POC (MARK2) [POC] | Avg. POC (EphA4) [POC] | Avg. POC (MRCKbeta) [POC] | Avg. POC (MKK7beta) [POC] | Avg. POC (p38gamma) [POC] | Avg. POC (MST1) [POC] | Avg. POC (JNK2alpha2) [POC] | Avg. POC (TrkB) [POC] | Avg. POC (PKCeta) [POC] | Avg. POC (DYRK2) [POC] | Avg. POC (GSK3beta) [POC] | Avg. POC (Pim-2) [POC] | Avg. POC (FGFR1) [POC] | other results
1 | Cc1c(-c2cnn(C)c2)nn(-c2ccccc2)c1NC(=O)N[C@H]1CCCc2ccccc21 [Example 2, (S)-1-(1′,4-dimethyl-1-phenyl-1H,1′H-3,4′-bipyrazol-5-yl)-3-(1,2,3,4-tetrahydronaphthalen-1-yl)urea] | 118.5 | 108.5 | 150 | 125 | 116.5 | 107 | 95.5 | 109 | 111.5 | 129.5 | 129.5 | 115 | 111.5 | 103.5 | −2 | 107 | 98 | 126 | 148 | 114 | Avg. POC (CK1_y): 100.5 POC; Avg. POC (CK1gamma3): 118 POC; Avg. POC (BrSK1): 119 POC; Avg. POC (Rsk2): 137 POC; Avg. POC (Hck): 85.5 POC; Avg. POC (EGFR): 114 POC; Avg. POC (ULK2): 99 POC; Avg. POC (MSSK1): 116 POC; Avg. POC (PKCalpha): 96 POC; Avg. POC (eEF-2K): 138 POC; Avg. POC (EphA7): 116 POC; Avg. POC (CK1delta): 117.5 POC; Avg. POC (Ret): 118.5 POC; Avg. POC (NEK2): 104 POC
2 | Cc1c(-c2cnn(C)c2)nn(-c2ccccc2)c1NC(=O)NC1CCOc2cc(F)ccc21 (centres unmarked) [Example 12, 1-(1′,4-dimethyl-1-phenyl-1H,1′H-[3,4′-bipyrazol]-5-yl)-3-(7-fluorochroman-4-yl)urea] | 139 | 114 | 129 | 139 | 104 | 102.5 | 100 | 105.5 | 114.5 | 103.5 | 122.5 | 111 | 92 | 96 | 1 | 100 | 97.5 | 109.5 | 118.5 | 90 | Avg. POC (CK1_y): 101 POC; Avg. POC (CK1gamma3): 104.5 POC; Avg. POC (BrSK1): 111.5 POC; Avg. POC (Rsk2): 103 POC; Avg. POC (Hck): 103.5 POC; Avg. POC (EGFR): 109.5 POC; Avg. POC (ULK2): 99 POC; Avg. POC (MSSK1): 112.5 POC; Avg. POC (PKCalpha): 104 POC; Avg. POC (eEF-2K): 140 POC; Avg. POC (EphA7): 96.5 POC; Avg. POC (CK1delta): 109.5 POC; Avg. POC (Ret): 85 POC; Avg. POC (NEK2): 91.5 POC
3 | Cc1c(-c2ccc(=O)n(C)c2)nn(-c2ccccc2)c1NC(=O)NC1CN(CC(F)(F)F)Cc2ccccc21 (centres unmarked) [Example 26, 1-(4-methyl-3-(1-methyl-6-oxo-1,6-dihydropyridin-3-yl)-1-phenyl-1H-pyrazol-5-yl)-3-(2-(2,2,2-trifluoroethyl)-1,2,3,4-tetrahydroisoquinolin-4-yl)urea] | 128 | 116.5 | 97.5 | 119 | 105 | 110.5 | 99 | 102.5 | 110 | 110 | 144.5 | 118 | 102 | 104 | 1.5 | 98 | 103 | 124.5 | 120.5 | 104.5 | Avg. POC (CK1gamma3): 102.5 POC; Avg. POC (BrSK1): 105.5 POC; Avg. POC (Rsk2): 105.5 POC; Avg. POC (Hck): 91.5 POC; Avg. POC (EGFR): 108 POC; Avg. POC (ULK2): 102 POC; Avg. POC (MSSK1): 120.5 POC; Avg. POC (PKCalpha): 107.5 POC; Avg. POC (eEF-2K): 127.5 POC; Avg. POC (EphA7): 108 POC; Avg. POC (CK1delta): 121.5 POC; Avg. POC (Ret): 106.5 POC; Avg. POC (NEK2): 100.5 POC
